Assay results reported in ChEMBL document CHEMBL5233237, “Agonist and antagonist ligands of toll-like receptors 7 and 8: Ingenious tools for therapeutic purposes” (Eur J Med Chem, 2020).
One block for each molecule: values may come before it.

Key:
Toll-like receptor 8 [1] = molecular target: T1, Toll-like receptor 8 (Homo sapiens, UniProt Q9NR97); assay: Agonist activity at human TLR8 transfected in HEK-Blue hTLR8 cells; format: cell-based
T1 sequence (Q9NR97 whole entry): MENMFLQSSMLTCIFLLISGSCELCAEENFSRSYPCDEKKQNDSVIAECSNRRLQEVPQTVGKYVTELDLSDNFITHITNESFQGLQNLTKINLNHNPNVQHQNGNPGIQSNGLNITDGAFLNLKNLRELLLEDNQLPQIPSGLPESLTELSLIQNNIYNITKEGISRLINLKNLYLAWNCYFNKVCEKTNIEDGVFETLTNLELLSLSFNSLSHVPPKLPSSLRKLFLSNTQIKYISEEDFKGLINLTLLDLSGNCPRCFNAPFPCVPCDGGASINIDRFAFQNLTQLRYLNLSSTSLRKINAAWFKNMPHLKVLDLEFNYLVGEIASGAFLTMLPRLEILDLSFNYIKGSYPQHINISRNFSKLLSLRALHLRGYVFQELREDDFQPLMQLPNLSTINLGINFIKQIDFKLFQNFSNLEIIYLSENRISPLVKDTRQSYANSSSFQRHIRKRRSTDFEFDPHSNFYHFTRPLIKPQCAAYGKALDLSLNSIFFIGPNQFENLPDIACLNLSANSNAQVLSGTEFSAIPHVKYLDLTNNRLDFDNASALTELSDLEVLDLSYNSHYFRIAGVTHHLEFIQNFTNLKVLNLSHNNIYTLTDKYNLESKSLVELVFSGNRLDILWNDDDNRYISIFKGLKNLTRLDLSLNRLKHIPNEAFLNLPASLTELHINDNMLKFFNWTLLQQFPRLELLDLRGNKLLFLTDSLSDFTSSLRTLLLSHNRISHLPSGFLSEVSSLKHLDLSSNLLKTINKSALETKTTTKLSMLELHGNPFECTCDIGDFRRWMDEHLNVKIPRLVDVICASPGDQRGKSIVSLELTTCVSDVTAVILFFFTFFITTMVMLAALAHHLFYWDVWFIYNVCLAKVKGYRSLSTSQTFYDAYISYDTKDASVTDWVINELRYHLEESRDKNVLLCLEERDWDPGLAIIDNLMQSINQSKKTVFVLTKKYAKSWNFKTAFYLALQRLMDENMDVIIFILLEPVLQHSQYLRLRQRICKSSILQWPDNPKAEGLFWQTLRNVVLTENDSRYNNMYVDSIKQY

Toll-like receptor 7 = molecular target: T2, Toll-like receptor 7 (Homo sapiens, UniProt Q9NYK1); assay: Agonist activity at human TLR7 transfected in HEK-Blue hTLR7 cells; format: cell-based
T2 sequence (Q9NYK1 whole entry): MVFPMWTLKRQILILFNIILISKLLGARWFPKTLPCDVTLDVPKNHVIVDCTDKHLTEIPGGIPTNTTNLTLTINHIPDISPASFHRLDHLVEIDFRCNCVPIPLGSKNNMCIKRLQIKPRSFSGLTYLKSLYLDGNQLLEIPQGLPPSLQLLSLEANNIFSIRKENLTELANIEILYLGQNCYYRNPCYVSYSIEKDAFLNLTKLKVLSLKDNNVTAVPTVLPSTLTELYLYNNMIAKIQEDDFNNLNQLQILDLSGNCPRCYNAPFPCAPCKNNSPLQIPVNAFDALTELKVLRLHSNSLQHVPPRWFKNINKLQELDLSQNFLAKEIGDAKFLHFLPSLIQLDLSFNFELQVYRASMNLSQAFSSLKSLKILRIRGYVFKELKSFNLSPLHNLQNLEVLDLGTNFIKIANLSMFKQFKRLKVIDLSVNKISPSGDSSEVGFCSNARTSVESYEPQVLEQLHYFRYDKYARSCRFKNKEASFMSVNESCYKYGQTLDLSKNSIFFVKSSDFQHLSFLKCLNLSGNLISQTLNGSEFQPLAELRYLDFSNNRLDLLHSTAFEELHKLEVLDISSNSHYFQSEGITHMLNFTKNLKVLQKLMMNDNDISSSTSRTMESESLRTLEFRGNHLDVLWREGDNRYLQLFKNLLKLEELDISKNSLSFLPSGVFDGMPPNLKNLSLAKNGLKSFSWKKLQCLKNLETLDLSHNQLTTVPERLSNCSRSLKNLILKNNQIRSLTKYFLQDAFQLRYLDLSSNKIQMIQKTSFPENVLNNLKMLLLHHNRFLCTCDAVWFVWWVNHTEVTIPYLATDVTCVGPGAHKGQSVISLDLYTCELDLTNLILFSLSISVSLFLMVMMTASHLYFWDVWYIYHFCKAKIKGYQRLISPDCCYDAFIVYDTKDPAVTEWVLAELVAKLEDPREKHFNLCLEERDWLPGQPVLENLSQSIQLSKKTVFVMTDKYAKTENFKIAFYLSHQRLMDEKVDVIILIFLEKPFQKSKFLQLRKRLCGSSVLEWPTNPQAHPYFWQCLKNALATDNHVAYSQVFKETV

Toll-like receptor 8 [2] = molecular target: T1, Toll-like receptor 8; assay: Agonist activity in TLR8 (unknown origin) expressed in HEK293 cells assessed as induction of NF-kappa activation; format: cell-based
[3] = Binding affinity to RasGAP (unknown origin) by surface plasmon resonance assay; design: species or system Homo sapiens
[4] = molecular target: Mitogen-activated protein kinase 3 (Homo sapiens, UniProt P27361); assay: Binding affinity to ERK1 (unknown origin) by surface plasmon resonance assay
Hepatitis C virus = assay: Antiviral activity against HCV infected in human Huh-7 cells assessed as reduction in HCV level at 1 to 10 uM measured after 24 h by real-time PCR method; design: scale not given: the % may be the effect or the level left; details: dose 1-10 µM
Mus musculus = assay: Potency index ratio of imiquimod MED to test compound MED for induction of IFN in po dosed mouse assessed as minimum effective dose; format: functional
Toll-like receptor 8 [5] = molecular target: T1, Toll-like receptor 8; assay: (§1) Agonist activity at human TLR8
B16 = assay: Antitumor activity against mouse B16 cells xenografted in mouse assessed as inhibition of tumor growth at 2 mg measured after 3 days; format: functional; design: scale not given: the % may be the effect or the level left; details: time 3 day
[6] = molecular target: T3, Toll-like receptor 8 (Homo sapiens) (UniProt Q9NR97); assay: as §1; details: filed as agonist
T3 sequence (whole entry): T1 sequence (Q9NR97 whole entry)

Chain of Mitogen-activated protein kinase 3 (P27361 whole entry): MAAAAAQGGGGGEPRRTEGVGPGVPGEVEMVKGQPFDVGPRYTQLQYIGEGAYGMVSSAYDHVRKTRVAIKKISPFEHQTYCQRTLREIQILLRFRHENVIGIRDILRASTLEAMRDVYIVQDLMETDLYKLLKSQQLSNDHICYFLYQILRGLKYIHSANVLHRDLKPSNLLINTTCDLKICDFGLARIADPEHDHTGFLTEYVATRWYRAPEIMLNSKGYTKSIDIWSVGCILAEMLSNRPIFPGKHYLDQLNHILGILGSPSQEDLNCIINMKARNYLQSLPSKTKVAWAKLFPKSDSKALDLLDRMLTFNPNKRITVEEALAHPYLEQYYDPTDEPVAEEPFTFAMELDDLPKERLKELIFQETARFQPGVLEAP

EC50 (Toll-like receptor 8 [1]): 30 nM
EC50 (Toll-like receptor 7): 15000 nM
EC50 (Toll-like receptor 8 [2]): 30 nM
Compound: CCOC(=O)C1=Cc2ccc(-c3cccc(C#N)c3)cc2N=C(N)C1

Kd [3]: 212 nM
Kd [4]: 98 nM
Compound: Cc1cc(Nc2ncc3c(n2)N(C)C(=O)N(c2cc(NC(=O)c4cccc(C(F)(F)F)c4)ccc2C)C3)n(C)n1

Compound: COCCOc1nc(N)c2[nH]c(=O)n(Cc3ccccc3)c2n1
Activity (Hepatitis C virus): 60%
Ratio (Mus musculus): 100

EC50 (Toll-like receptor 8 [5]): 200 nM
Compound: CCCCc1nc2c(N)nc3ccccc3c2s1

Compound: C=CCn1c(=O)n([C@@H]2O[C@H](CO)[C@@H](O)[C@H]2O)c2nc(N)[nH]c(=O)c21 [LOXORIBINE]
Activity (B16): 96%

EC50 [6]: 1600 nM
Compound: CCCCc1nc2c(N)nc3cc(C(=O)OC)ccc3c2n1CCCCCN
